The target in assay [1] is T1, Protein kinase C epsilon type (Homo sapiens) (UniProt Q02156).
T1 sequence (whole entry): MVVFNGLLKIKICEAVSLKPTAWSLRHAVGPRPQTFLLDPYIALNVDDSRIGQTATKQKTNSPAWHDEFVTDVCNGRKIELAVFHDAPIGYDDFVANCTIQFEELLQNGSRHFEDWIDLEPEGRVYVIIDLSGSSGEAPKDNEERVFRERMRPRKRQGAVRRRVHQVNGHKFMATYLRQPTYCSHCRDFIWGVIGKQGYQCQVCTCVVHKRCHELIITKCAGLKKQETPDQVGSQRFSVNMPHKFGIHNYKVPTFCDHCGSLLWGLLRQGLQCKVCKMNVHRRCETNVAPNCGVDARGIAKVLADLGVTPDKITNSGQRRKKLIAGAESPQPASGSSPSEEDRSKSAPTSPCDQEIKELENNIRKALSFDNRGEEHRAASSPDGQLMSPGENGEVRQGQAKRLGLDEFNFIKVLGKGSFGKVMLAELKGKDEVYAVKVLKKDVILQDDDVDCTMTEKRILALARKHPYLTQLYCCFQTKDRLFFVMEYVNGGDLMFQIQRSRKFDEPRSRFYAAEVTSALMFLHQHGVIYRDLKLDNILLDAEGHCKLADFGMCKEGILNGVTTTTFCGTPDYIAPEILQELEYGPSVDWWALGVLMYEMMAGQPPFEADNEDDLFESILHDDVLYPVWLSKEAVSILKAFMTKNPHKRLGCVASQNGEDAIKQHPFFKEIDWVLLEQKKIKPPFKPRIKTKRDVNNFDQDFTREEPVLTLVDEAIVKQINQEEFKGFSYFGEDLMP
In words: Selectivity interaction (Kinase panel (Z-LYTE Assay)) EUB0001632a PRKCE. To be noted: at 10 µM.

The target in the next assay is Ephrin type-A receptor 4 (Homo sapiens, UniProt P54764). Kind of assay: Selectivity interaction (KinomeScan (DiscoverX)) EUB0001619a EPHA4. As to conditions: at 1 µM.
Chain of Ephrin type-A receptor 4 (P54764 whole entry): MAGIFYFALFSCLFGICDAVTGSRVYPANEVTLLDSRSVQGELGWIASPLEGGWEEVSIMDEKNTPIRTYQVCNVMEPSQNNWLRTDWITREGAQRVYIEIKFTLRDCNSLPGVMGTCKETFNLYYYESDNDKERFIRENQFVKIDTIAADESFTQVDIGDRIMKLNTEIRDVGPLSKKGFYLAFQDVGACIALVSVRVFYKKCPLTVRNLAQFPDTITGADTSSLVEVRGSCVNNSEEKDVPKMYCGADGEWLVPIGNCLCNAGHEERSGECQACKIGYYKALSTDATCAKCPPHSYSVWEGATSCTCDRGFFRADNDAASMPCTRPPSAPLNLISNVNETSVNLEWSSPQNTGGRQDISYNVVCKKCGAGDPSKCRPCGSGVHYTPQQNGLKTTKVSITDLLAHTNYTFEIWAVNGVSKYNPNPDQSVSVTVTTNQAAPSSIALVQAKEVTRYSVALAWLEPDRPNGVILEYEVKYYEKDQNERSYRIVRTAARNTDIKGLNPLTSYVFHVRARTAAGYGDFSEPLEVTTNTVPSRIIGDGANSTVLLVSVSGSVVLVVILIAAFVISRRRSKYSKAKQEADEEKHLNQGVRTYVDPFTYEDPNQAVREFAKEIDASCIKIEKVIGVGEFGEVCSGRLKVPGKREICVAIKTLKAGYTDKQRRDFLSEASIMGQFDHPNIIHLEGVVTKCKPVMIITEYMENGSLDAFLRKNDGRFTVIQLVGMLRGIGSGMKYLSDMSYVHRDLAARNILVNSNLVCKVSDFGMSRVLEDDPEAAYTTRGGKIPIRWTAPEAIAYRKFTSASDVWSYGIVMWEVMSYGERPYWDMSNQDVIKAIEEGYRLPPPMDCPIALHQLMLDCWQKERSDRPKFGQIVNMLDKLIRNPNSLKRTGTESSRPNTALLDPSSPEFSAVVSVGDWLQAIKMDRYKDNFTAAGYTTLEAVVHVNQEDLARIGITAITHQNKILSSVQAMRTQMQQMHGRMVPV
Assay [2] addresses Calcium/calmodulin-dependent protein kinase type II subunit alpha (Homo sapiens, UniProt Q9UQM7). Kind of assay: Selectivity interaction (KinomeScan (DiscoverX)) EUB0000607a CAMK2A. To be noted: at 10 µM.
The target of assay [3] is T2, Serine/threonine-protein kinase STK11 (Homo sapiens) (UniProt Q15831).
T2 sequence (whole entry): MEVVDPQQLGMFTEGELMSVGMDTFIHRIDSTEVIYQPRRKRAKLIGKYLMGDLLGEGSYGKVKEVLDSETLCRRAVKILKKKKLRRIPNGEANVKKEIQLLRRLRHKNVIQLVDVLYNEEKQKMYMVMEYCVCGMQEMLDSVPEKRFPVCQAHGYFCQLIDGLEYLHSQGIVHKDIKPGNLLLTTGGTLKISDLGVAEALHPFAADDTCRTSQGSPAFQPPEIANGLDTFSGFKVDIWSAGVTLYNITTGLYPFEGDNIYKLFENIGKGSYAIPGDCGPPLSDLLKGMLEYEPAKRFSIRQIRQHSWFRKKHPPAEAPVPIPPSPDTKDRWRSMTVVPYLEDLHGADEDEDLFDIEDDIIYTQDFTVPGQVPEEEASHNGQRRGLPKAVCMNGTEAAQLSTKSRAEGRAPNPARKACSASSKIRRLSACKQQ
Kind of assay: Selectivity interaction (KinomeScan (DiscoverX)) EUB0000607a STK11. To be noted: at 10 µM.

Assay [4] concerns Phosphatidylinositol 4,5-bisphosphate 3-kinase catalytic subunit alpha isoform (Homo sapiens), P42336 [H1047Y]. As to conditions: at 10 µM.
Chain of Phosphatidylinositol 4,5-bisphosphate 3-kinase catalytic subunit alpha isoform (Homo sapiens), P42336 [H1047Y] (P42336 whole entry H1047Y, canonical isoform): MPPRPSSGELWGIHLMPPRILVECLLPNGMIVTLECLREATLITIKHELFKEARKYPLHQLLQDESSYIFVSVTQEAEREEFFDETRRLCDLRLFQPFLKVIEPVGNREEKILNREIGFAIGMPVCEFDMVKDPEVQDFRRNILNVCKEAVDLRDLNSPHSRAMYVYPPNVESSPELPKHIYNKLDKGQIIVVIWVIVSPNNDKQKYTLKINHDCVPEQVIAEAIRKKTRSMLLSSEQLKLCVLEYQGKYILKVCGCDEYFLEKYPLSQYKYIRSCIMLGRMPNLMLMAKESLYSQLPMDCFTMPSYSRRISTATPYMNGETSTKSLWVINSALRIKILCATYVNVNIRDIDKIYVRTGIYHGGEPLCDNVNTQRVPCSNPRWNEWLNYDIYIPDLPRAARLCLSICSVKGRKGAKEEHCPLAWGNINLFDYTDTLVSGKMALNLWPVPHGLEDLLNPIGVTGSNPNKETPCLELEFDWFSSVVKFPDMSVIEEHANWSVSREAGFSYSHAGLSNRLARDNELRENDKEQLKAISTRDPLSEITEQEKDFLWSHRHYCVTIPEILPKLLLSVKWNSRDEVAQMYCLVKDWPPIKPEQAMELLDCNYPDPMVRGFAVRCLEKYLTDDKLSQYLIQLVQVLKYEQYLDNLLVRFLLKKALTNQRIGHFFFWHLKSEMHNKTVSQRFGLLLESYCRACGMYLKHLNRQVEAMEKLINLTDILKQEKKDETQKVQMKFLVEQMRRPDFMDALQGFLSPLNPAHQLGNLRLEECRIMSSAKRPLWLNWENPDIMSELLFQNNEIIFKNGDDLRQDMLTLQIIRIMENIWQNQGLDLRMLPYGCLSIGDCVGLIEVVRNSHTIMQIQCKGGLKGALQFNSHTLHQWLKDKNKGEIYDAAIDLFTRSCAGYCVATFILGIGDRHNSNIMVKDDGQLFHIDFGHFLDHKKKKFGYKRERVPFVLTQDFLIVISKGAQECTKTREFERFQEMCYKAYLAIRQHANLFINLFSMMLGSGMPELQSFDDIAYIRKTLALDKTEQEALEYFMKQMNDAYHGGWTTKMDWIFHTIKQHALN
Assay [5] concerns the target T3, Mitogen-activated protein kinase kinase kinase kinase 2 (Homo sapiens) (UniProt Q12851).
T3 sequence (whole entry): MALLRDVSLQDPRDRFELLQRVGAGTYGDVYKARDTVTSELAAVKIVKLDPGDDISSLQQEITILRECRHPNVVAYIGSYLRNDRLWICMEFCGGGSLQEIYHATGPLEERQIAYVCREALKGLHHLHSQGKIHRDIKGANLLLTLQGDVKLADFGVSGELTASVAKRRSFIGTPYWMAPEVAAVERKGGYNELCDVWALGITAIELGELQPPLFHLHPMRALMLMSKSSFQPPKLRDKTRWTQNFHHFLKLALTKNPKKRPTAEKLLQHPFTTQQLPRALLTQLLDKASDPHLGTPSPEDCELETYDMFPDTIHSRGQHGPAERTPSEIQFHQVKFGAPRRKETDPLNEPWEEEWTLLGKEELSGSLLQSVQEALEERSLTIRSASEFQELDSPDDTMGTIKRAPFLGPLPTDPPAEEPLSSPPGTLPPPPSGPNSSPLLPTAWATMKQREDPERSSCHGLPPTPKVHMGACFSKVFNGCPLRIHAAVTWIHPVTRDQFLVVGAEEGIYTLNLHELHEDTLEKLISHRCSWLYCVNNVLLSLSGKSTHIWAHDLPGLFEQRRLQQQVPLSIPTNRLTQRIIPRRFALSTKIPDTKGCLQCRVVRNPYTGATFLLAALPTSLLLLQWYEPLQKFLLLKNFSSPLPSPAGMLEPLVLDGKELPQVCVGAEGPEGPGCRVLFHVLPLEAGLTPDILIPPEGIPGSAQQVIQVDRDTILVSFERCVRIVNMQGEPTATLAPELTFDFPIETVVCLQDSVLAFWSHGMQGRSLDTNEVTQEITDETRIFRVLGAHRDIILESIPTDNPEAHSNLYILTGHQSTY
In words: Selectivity interaction (ActivX KiNativ screen (kinase selectivity in THP-1 cell lysates)) EUB0000639a MAP4K2. Format: subcellular. As to conditions: lysate, at 5 µM.

For assay [6], the target named is T4, Dual specificity mitogen-activated protein kinase kinase 5 (Homo sapiens) (UniProt Q13163).
T4 sequence (whole entry): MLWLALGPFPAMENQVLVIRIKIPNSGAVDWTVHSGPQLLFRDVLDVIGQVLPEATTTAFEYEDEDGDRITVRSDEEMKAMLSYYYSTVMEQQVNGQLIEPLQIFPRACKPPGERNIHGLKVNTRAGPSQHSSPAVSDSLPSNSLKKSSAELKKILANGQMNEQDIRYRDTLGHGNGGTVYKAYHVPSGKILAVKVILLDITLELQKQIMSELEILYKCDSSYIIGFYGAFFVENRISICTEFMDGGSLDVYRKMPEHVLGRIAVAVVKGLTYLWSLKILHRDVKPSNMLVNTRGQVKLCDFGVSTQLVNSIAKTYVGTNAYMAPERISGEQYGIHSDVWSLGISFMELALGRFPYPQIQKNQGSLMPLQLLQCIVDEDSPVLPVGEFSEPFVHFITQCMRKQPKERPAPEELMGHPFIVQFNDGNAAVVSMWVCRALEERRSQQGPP
Kind of assay: Selectivity interaction (ProQinase) EUB0000171b MAP2K5.

The target in assay [7] is STE20/SPS1-related proline-alanine-rich protein kinase (Homo sapiens) (UniProt Q9UEW8). Kind of assay: Selectivity interaction (KinomeScan (DiscoverX)) EUB0000655a STK39. To be noted: at 10 µM.
In assay [8] the target is Serine/threonine-protein kinase pim-1 (Homo sapiens, UniProt P11309). Kind of assay: Selectivity interaction (KinomeScan (DiscoverX)) EUB0000092b PIM1. As to conditions: at 10 µM.
Chain of Serine/threonine-protein kinase pim-1 (P11309 whole entry, looked up): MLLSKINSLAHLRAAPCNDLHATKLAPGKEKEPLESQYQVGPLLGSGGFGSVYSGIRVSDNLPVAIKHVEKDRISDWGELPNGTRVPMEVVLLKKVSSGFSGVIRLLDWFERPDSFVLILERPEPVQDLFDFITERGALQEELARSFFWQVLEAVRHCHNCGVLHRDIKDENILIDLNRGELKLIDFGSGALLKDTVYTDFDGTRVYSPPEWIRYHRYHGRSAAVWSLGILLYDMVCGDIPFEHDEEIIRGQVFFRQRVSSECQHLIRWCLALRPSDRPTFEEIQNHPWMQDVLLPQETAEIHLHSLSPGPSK

The source of these data is ChEMBL document CHEMBL5465560, “Selectivity Literature for EUbOPEN Chemogenomic Library” (2024).

Chain of Calcium/calmodulin-dependent protein kinase type II subunit alpha (Q9UQM7 whole entry): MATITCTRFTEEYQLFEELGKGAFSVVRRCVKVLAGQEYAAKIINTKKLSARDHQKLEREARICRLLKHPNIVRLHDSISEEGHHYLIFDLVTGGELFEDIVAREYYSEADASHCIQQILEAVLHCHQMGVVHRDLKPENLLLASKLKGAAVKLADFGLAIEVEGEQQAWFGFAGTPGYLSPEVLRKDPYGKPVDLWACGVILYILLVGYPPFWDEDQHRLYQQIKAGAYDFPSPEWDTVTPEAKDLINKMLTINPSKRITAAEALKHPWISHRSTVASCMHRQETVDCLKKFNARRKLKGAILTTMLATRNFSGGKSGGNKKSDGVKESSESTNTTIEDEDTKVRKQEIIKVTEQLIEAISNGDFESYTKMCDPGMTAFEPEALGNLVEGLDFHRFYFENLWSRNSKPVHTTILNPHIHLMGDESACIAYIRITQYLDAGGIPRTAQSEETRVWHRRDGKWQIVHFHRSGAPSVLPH

With `Cn1cc(-n2cnc3c(NCc4nc5cc(Cl)c(Cl)cc5[nH]4)nc(N4CCOCC4)nc32)cn1`, the % of control in assay [1] is -8.31%.

Turning to `N#Cc1cccc(-c2c[nH]c3ncnc(N4CCOCC4)c23)c1`, on Ephrin type-A receptor 4, the % of control came out at 100%.

As to `CNC(=O)Nc1ccc(-c2nc(N3CC4CCC(C3)O4)c3cnn(C4CCC5(CC4)OCCO5)c3n2)cc1`, the % of control in assay [2] was 100%; in assay [3], 80%; in assay [4] it was 9.6%.

Consider `CC[C@@H]1[C@H](F)C(=O)N[C@@H]1COc1nccc2cc(C(N)=O)c(OC)cc12` [ZIMLOVISERTIB], for which, in assay [5], the % of inhibition was -1.3%.

On to `C=CC(=O)Nc1cccc(C(=O)Nc2ccc(Nc3cc(-c4[nH]c(SC)nc4C)ccn3)cc2)c1`, for which the % of control in assay [6] (at 1 µM) came out at 87%; in assay [6] (at 5 µM), 60%.

`CN(C)CCOc1ccc(-c2nc(-c3ccncc3)c(-c3ccc4c(c3)CC/C4=N\O)[nH]2)cc1`: the % of control in [7] was 100%.

Regarding `CCC(=O)N1CCN(c2ccc(-n3c(=O)ccc4cnc5ccc(-c6cnc7ccccc7c6)cc5c43)cc2C(F)(F)F)CC1`, in assay [8], the % of control stood at 80%.
